Measured values taken from patent publication US11325884B2, “Ketone inhibitors of lysine gingipain” (CORTEXYME, INC., priority 2016, dated 2022).

Legend:
[1] = in vivo, po; cited from earlier work
[2] = test system: P. gingivalis W83; experiment: Experimental periodontitis / P. gingivalis infection mouse model; format: in vivo, BALB/C female mice; settings: for alveolar bone loss: week 5-10, vs vehicle; for reduction in P. gingivalis DNA copy number (RgpB gene) in brain tissue: between week 5 and 10
From the text: P. gingivalis applied over several weeks directly to the gingiva of mice has been used as a model for periodontitis. Alveolar bone resorption, a hallmark of periodontitis progression, is typically observed when this model employed. More recently, use of the model has also led to the discovery of a significant amount P. gingivalis in the brain, which accumulates concomitantly with oral colonization and which subsequently leads to detrimental effects such as inflammation and loss of hippocampal neurons.
At the beginning of the study, eight week old BALB/C female mice received antibiotic in drinking water (sulfamethoxazolum 0.87 mg/mL, trimethoprimum 0.17 mg/mL) for 10 days to reduce microbiome protection from experiment infection. Experimental periodontitis was induced by ligature placement followed by multiple exposures to P. gingivalis. During the ligature procedure mice were anesthetized with an intraperitoneal injection of ketamine (200 mg/kg) and xylazine (10 mg/kg), and eyes were lubricated with ointment (Puralube Vet; Pharmaderm, Melville, N.Y.). Next, a 5-0 silk ligature (Roboz Surgical Instrument Co.) was tied around the upper maxillary left and right second molar. Sutures were applied and tied gently to prevent damage to the periodontal tissue.
Mice (n=8-10/arm) were infected for 6 weeks every other day. For infection, 100 μL of bacteria solution were applied topically to the buccal surface of the maxillae. For preparation of the bacteria, P. gingivalis W83 (ATCC, Rockville, Md.) was streaked on Tryptic Soy Broth (TSB) agar plates (5% sheep blood, supplemented with 0.5 mg/mL L-cysteine, 5 μg/mL hemin, and 0.5 μg/mL vitamin K) and grown under anaerobic conditions at 37° C. for 5-7 days. Samples were then inoculated in TSB with hemin, vitamin K and L-cysteine (TSB-HKC) until mid-log phase (OD600=0.5-0.7). Bacteria were washed in PBS and prepared at final concentration of 1×10^10 cells/mL in PBS+2% methylcellulose (CMC).
Vehicle-treated animals received PBS only. At 5 weeks, a subgroup of animals (n=16) were euthanized to gather baseline measurements before the start of treatment. After 10 weeks, mice were euthanized and the brain, serum, and maxillary tissues were harvested and frozen in liquid nitrogen.
Bone loss in the maxillae was measured ex vivo blinded using OsiriX MD software (PixmeoSARL, Bernex, Switzerland). Point of measurements were obtained using 3D Multi Planar Reconstruction (MPR) view where the maxillae were sliced straight along the superficial roots of second molar and the posterior root of first molar, with a tangent of the anterior root of the first molar. The distance between the cementoenamel junction (CEJ) and the alveolar bone crest (ABC) was measured from the CEJ to a reference line on the ABC which was placed perpendicular to the superficial root one each side of the second molar. […] (ANOVA: F (5, 24)=15.71, p<0.0001; t-test with Bonferroni correction: **p<0.005, ***p<0.001).
DNA was extracted from brain tissue using the DNeasyBLOOD & TISSUE KIT (Qiagen, Germany) according to manufacturer's protocol. Taqman qPCR was performed with Kapa Probe fast qPCR Mix (Rox Low) on a Bio-Rad CFX96 Real-Time System C1000 Touch ThermalCycler with forward and reverse primers, and a detection probe. The primers were based on a single copy of P. gingivalis arginine-specific cysteine-proteinase gene. Duplicate samples were assayed in a total volume of 10 μL, containing 100 ng of template brain genomic DNA solution, TaqMan Universal PCR Master Mix (2×) (Kapa Biosystems, USA), and the specific set of primers (final concentration 5 μM) and probe (final concentration 4 μM) (GenoMed, Poland), corresponding to 562.5 nM for the forward and reverse primers and 100 nM for the probe primer. After an initial incubation step of 2 min at 50° C. and denaturation for 95° C. for 20 sec, 40 PCR cycles (95° C. for 20 s, 60° C. for 30 sec) were performed. […]

[3] = test system: P. gingivalis infection; experiment: Related studies: brain abeta42 and neuroinflammation; format: in vivo
From the text: By inhibiting Kgp, the compounds disclosed herein can treat P. gingivalis infection itself, as well as the detrimental effects of neurological disease and other infection-associated conditions.

[4] = target: Kgp (Porphyromonas gingivalis (Bacteroides gingivalis), UniProt Q51817); experiment: Detection of Kgp with Cy5 activity-based probe (SDS-PAGE, Cy5 visualization); format: binding; settings: 100 nM preincubation, P. gingivalis W83
Method: It has a warhead that binds to the Kgp active site, a peptide-based core, and a Cy5 fluorophore for detection. Labeled target proteins can be visualized by biochemical separation of a sample with fractionation by 2-D gel electrophoresis and detection of fluorescent signals from Cy5 at the appropriate excitation and emission wavelength. Incubation of a fixed concentration of the probe following binding of Kgp to a test compound (e.g., a candidate Kgp inhibitor) results in binding of the activity probe to Kgp active sites not already bound by the test compound.
Preparation of P. gingivalis lysate. 10^8 bacteria were collected and centrifuged at 5000 g for 10 min at 4° C., and the supernatant was discarded. The bacterial cell pellet was lysed with 1 mL of B-Per lysis buffer (Thermo Fischer) on ice for 10 min, then centrifuged for 10 min at 14000 g, 4° C. Supernatant-containing protein lysate was collected. Biological samples were lysed with B-Per lysis buffer for 10 min at 4° C.
Cy5 direct labeling of Kgp. Biological samples, P. gingivalis lysate or purified Kgp were incubated with quenchable Cy5 probe compound 71 (1 μM) for 1 h at 37° C. with shaking. […]

[5] = Oral pharmacokinetics in CD-1 mice; format: in vivo; settings: male CD-1 mice, p.o. 10 mg/kg, as compared to reference compound 73

Sequence of Kgp (Q51817 229-737 limits assumed): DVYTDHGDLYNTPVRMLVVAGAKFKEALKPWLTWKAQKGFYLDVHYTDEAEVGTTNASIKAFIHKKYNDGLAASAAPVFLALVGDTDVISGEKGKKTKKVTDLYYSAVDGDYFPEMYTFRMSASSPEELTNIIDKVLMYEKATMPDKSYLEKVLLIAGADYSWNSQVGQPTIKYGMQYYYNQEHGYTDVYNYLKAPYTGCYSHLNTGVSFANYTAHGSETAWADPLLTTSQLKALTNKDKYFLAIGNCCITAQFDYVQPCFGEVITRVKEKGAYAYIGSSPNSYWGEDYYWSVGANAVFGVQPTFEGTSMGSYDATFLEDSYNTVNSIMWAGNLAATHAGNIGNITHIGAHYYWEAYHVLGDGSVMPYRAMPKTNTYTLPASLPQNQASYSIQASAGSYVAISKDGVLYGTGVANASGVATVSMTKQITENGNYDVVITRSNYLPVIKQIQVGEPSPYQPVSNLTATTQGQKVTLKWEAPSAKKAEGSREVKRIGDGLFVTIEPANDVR

In the case of `CN(NC(=O)CC[C@H](NC(=O)OCc1ccccc1)C(=O)N[C@@H](CCCCN)C(=O)C(=O)NCc1ccccc1)c1ccccc1` [Kyt-36], the half-life [1] is listed as “increases”.
For `NCCCC[C@H](NC(=O)C1CCCC1)C(=O)COc1c(F)ccc(F)c1F` [Compound 1, (S)—N-(7-amino-2-oxo-1-(2,3,6-trifluorophenoxy)heptan-3-yl)cyclopentanecarboxamide], the alveolar bone loss ([2]; 3 mg/kg orally b.i.d.) was “trended to improvement but did not result in significant improvement”, the “reduction in P. gingivalis DNA copy number (RgpB gene) in brain tissue” value ([2]; 3 mg/kg) was 50% and the alveolar bone loss ([2]; 10 mg/kg orally b.i.d.) was “improved”. The “reduction in P. gingivalis DNA copy number (RgpB gene) in brain tissue” value ([2]; 10 mg/kg) was 50%, the alveolar bone loss ([2]; 30 mg/kg orally b.i.d.) was “improved” and the “reduction in P. gingivalis DNA copy number (RgpB gene) in brain tissue” value ([2]; 30 mg/kg) was 80%. For the same molecule, the “GAD67 positive interneurons in the dentate gyrus” value ([2]; 10 weeks, infected untreated mice lost 25%) was “at the same level as the GAD67^+ cells in the mock-infected mice”, the “induction of brain abeta42” value [3] was “reduce” and the neuroinflammation [3] was “reduce”. The “competition for Kgp active site binding with probe compound 71” value [4] was “competes for active site binding”, the oral availability [5] was “improved” and the plasma concentrations [5] was “increased”.
